# Experimental data reported in patent publication US9097667B2, “Fluorescent compounds” (BIOTIUM, INC., priority 2007, dated 2015).
# Assay: Total fluorescence vs. degree of labeling (DOL) of protein dye-conjugates
# Type: physicochemical
# Conditions: goat anti-mouse IgG conjugates, excited at 350 nm, compared to AMCA; FIG. 7
# Description: Fluorescent conjugates of goat anti-mouse IgG (GAM), goat anti-rabbit IgG (GAR), and streptavidin were prepared from the respective proteins and a reactive dye, following published procedures (U.S. Pat. No. 6,974,873; Haugland et al., Meth. Mol. Biol. 45, 205 (1995); Haugland et al., Meth. Mol. Biol. 45, 223 (1995); Haugland et al., Meth. Mol. Biol. 45, 235 (1995); Haugland et al., Current Protocols in Cell Biology, 16.5.1-16.5.22 (2000)). Briefly, an antibody or streptavidin at 1 mg/mL in […] pH 8.5 sodium bicarbonate buffer was mixed with one of the reactive dye at various ratio of dye molecules/protein molecule. After incubating for about an hour at room temperature, the reaction mixture was separated by gel filtration using Sephadex G-25 equilibrated with PBS (pH 7.4). The various dye molecules/protein ratios used in the labeling reactions produced protein conjugates with different degree of dye labeling (DOL) as listed in Table 7 below for each dye/protein pair.
# The fluorescence of the conjugates was measured using a JACSO fluorescence spectrophotometer and was then plotted against the DOL to give FIGS. 4-7.
# A set of goat anti-mouse IgG conjugates were prepared by labeling a portion of goat anti-mouse IgG with one of three near IR dyes. […]
row,SMILES,total fluorescence vs. degree of labeling (DOL)
1,COCCOCCOCCOCCOCCOCCOCCOCCOCCOCCOCCN(CCCCCC(=O)ON1C(=O)CCC1=O)C(=O)Cc1c(C)c2ccc(N)cc2oc1=O [Compound No. 92],higher fluorescence quantum yield over a wide of degree of labeling and has less fluorescence quenching when the antibody is at higher degrees of labeling

# Assay: Absorption and emission spectra of the dyes (λabs/λem in H2O)
# Type: physicochemical
# Conditions: Table 5, coumarin-based fluorescent groups
# Excerpt: For compounds of Formula II, it is well known to a person of skill in the art to select the bridging unit Y, in combination with a specific embodiment of a moiety of Formula F, in combination with a specific embodiment of moiety Y, and in combination with specific substituents such that the maximal fluorescence excitation wavelength of the compound ranges from about 350 to about 1200 nm. Standard analysis well known in the art is used to obtain the absorption and emission spectra of the dyes in order to ascertain the absorption maximal wavelength and the maximal fluorescence emission wavelength. Any combinations of the above described groups may be used to form a compound of the invention with a maximal fluorescence excitation wavelength of about 550 nm, about 560 nm, about 570 nm, about 580 nm, about 590 nm, about 600 nm, about 610 nm, about 620 nm, about 615 nm, about 620 nm, about 625 nm, about 630 nm, about 635 nm, about 640 nm, about 650 nm, about 655 nm, about 660 nm, about 665 nm, about 670 nm, about 675 nm, about 680 nm, about 685 nm, about 690 nm, about 695 nm, about 700 nm, about 705 nm, about 710 nm, about 715 nm, about 720 nm, about 725 nm, about 730 nm, about 735 nm, about 740 nm, about 745 nm, about 750 nm, about 755 nm, about 760 nm, about 765 nm, about 770 nm, about 775 nm, about 780 nm, about 790 nm, about 800 nm, about 810 nm, about 820 nm, about 830 nm, about 840 nm, about 850 nm, about 860 nm, about 870 nm, about 880 nm, about 890 nm, about 900 nm, about 910 nm, about 920 nm, about 930 nm, about 940 nm, about 950 nm, about 960 nm, about 970 nm, about 980 nm, about 990 nm, about 1000 nm, about 1020 nm, about 1040 nm, about 1060 nm, about 1080 nm, about 1100 nm, about 1120 nm, about 1140 nm, about 1160 nm, about 1180 nm, or about 1200 nm. The moieties described above may be used in any combination. The maximal fluorescence excitation wavelength of the dye is typically the wavelength at which the dye has a maximal absorption or maximal optical density, which excites the dye to fluoresce. In some embodiments, the compound of Formula II has an absorption maximal wavelength at >670 nm. In one embodiment, the absorption maximal wavelength is at >700 nm. According to another embodiment, the absorption maximal wavelength is at >800 nm.
λabs [nm],λcm [nm],SMILES
353,442,C=C(Cc1c(C)c2ccc(N)cc2oc1=O)N(CCCCCC(=O)ON1C(=O)CCC1=O)CCOCCOCCOCCOCCOCCOCCOCCOCCOCCOCCOCCOC [compound 50]
430,545,COCCOCCOCCOCCOCCOCCOCCOCCOCCOCCOCCOCCOCCOCCOCCOCCOCCOCCOCCOCCOCCOCCOCCOCCN(CCCCCC(=O)ON1C(=O)CCC1=O)C(=O)CCCCCN1c2cc3oc(=O)cc(C(F)(F)F)c3cc2C(CS(=O)(=O)O)=CC1(C)C [compound 53]

# More lines, now with the values behind:
SMILES,λabs [nm],λcm [nm]
COCCOCCOCCOCCOCCOCCOCCOCCOCCOCCOCCOCCN(CCCCCC(=O)ON1C(=O)CCC1=O)C(=O)Cc1c(C)c2cc(S(=O)(=O)O)c(N)cc2oc1=O [Compound No. 51],346,442
COCCOCCOCCOCCOCCOCCOCCOCCOCCOCCOCCOCCN(CCCCCC(=O)ON1C(=O)CCC1=O)C(=O)c1cc2cc(F)c(O)c(F)c2oc1=O [Compound No. 52],416,465
